The assay concerns the target T1, Lysosomal acid glucosylceramidase (Homo sapiens, UniProt P04062).
T1 sequence (P04062 whole entry): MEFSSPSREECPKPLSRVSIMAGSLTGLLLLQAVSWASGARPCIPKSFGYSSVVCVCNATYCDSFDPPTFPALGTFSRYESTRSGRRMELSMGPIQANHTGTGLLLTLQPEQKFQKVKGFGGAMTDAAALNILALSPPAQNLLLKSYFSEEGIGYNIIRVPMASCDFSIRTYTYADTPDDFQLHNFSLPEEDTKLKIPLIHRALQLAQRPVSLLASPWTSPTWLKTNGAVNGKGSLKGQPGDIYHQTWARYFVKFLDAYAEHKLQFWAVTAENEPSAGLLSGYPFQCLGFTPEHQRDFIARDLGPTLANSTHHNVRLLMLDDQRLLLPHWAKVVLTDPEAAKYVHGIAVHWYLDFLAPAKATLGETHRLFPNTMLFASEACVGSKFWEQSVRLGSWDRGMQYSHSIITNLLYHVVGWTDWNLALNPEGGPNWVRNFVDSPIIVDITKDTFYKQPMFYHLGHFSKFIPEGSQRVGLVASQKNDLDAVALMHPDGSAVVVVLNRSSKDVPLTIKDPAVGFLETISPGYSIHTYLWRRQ
Put plainly: GC Enzyme Assay. The settings on record: pH 5.9; 21 °C.

For two compounds, IC50 and Ki results are on record in BindingDB's records for doi:10.1073/pnas.0705637104 (Nih, 2007).

The structures appear in SMILES notation.

Take `CN(c1ccc(C(=O)Nc2nccs2)cc1)S(=O)(=O)c1ccccc1`: the concentration for half-maximal inhibition (IC50) (usually the concentration that inhibits the measured activity by half) is 34.4 µM and affinity was put at a Ki of 23.4 µM.

As to `O=C(Nc1nccs1)c1ccc(NS(=O)(=O)c2ccc(Cl)cc2)cc1` [4-[(4-chlorobenzene)sulfonamido]-N-(1,3-thiazol-2-yl)benzamide], 1.29 µM corresponded to half-maximal inhibition (IC50) and the Ki (commonly a dissociation constant, usually derived from enzyme kinetics or from competition with a known ligand) was found to be 0.556 µM.
